The source of these data is patent US4962109A, “Insecticidally and acaricidally active pyrimidine esters and intermediates therefor” (Imperial Chemical Industries PLC, priority 1985, dated 1990).

What all share (type): in vivo
For test [1], the system named is Tetranychus urticae (spider mites - adult). The experiment in a line: Contact test on spider mites - adult (TUa), French bean leaf, mortality. The settings on record: 72 h, 500 ppm, contact, 3 days, read-out: TUa grading of mortality. On the procedure: (§1) The activity of the Product was determined using a variety of insect pests. The Product was used in the form of liquid preparations containing 500, 250 or 100 parts per million (ppm) by weight of the Product. The preparations were made by dissolving the Product in acetone and diluting the solutions with water containing 0.01% by weight of a wetting agent sold under the trade name "LISSAPOL" NX until the liquid preparations contained the required concentration of the Product. "Lissapol" is a Registered Trade Mark.
(§2) The test procedure adopted with regard to each pest was basically the same and comprised supporting a number of the pests on a medium which was usually a host plant or a foodstuff on which the pests feed, and treating either or both the pests and the medium with the preparations. The mortality of the pests was then assessed at periods usually varying from one to three days after the treatment.
(§3) The results of the tests are given in Table III for each of the Products, at the rate in parts per million given in the second column as a grading of mortality designated as A, B or C wherein A indicates 80-100% mortality or knockdown, B indicates 50-79% mortality or knockdown and C indicates less than 50% mortality or knockdown.

In test [2] the test system is Spodoptera exigua (lesser army worm - larvae). The experiment in a line: Residual test on lesser army worm larvae (SP), Cotton leaf, mortality. The settings on record: 48 h, 500 ppm, residual, 2 days, read-out: SP grading of mortality. On the procedure: as §1, §2, §3
(lesser army worm - larvae)

For test [3], the system named is Tetranychus urticae (spider mites - ova). The experiment in a line: Contact test on spider mites - ova (TUe), French bean leaf, mortality. The settings on record: 144 h, 500 ppm, contact, 6 days, read-out: TUe grading of mortality. As for the experimental part:
as §1, §2, §3

Test [4] concerns Diabrotica balteata (rootworm larvae). The experiment in a line: Residual test on rootworm larvae (DB), Filter paper/maize seed, mortality. The settings on record: 48 h, 500 ppm, residual, 2 days, read-out: DB grading of mortality. As for the experimental part: as §1, §2, §3
A further test concerns Myzus persicae (aphids). The experiment in a line: Contact test on aphids (MP), Chinese Cabbage leaf, mortality. The note with it: 72 h, 500 ppm, contact, 3 days, read-out: MP grading of mortality. On the procedure:
as §1, §2, §3

Test [5] deals with Nephotettix cincticeps (green leaf hopper - nymphs). The experiment in a line: Contact test on green leaf hopper nymphs (NC), Rice plant, mortality. The settings on record: 48 h, 500 ppm, contact, 2 days, read-out: NC grading of mortality. On the procedure: as §1, §2, §3
NC Nephotettix cincticeps

Test [6] deals with Musca domestica (houseflies - adults). The experiment in a line: Contact test on houseflies - adults (MD), Cotton wool/sugar, mortality. The settings on record: 72 h, 500 ppm, contact, 3 days, read-out: MD grading of mortality. As for the experimental part: as §1, §2, §3
Test [7] deals with Blattella germanica (cockroach nymphs). The experiment in a line: Contact test on cockroach nymphs (BG/C), Plastic pot, mortality. The settings on record: 48 h, 500 ppm, contact, 2 days, read-out: BG/C grading of mortality. On the procedure: as §1, §2, §3
BG/C Blattella germanica

Test [8] relates to Heliothis virescens (tobacco budworm - larvae). The experiment in a line: Residual test on tobacco budworm larvae (HV), Cotton leaf, mortality. The note with it: 48 h, read-out: HV grading of mortality. On the procedure: as §1, §2, §3
(tobacco budworm - larvae)

Test [9] deals with Musca domestica (houseflies - adults). The experiment in a line: Knockdown test on houseflies - adults (MD/KD), Cotton wool/sugar. The settings on record: 500 ppm, 4 hours, read-out: MD/KD grading of knockdown. As for the experimental part:
as §1, §2
In the case of the species Musca domestica (housefly), additional tests to determine the knockdown effect of the compounds were performed. PG,163
as §3

For `COCc1c(F)c(F)c(COC(=O)C(c2cnc(C(C)(C)C)nc2)C(C)(C)C)c(F)c1OC` (racemic) [Compound 217, 2,3,6-trifluoro-5-methoxy-4-(methmethyl)-benzyl (RS)-2-[2-(1,1-dimethylethyl)pyrimidin-5-yl]-3,3-dimethylbutanoate], the mortality at 500 ppm in test [1] is 80 to 100%; in [2], 80 to 100%; in [3], less than 50%; in [4] it was less than 50%; in the test with Myzus persicae (aphids) it was 80 to 100%; in test [5] it was 80 to 100%. The mortality at 500 ppm in [6] was 80 to 100%; in [7] it was less than 50%; in [8], 80 to 100%. The pest or weed control at 500 ppm in test [9] lay in the range of 80 to 100%.
For `CC(C)(C)OC(=O)COCc1c(F)c(F)c(COC(=O)C(c2cnc(C(C)(C)C)nc2)C(C)(C)C)c(F)c1F` (racemic) [Compound 165, 4-[(1,1-dimethylethyl)oxycarbonylmethoxymethyl]-2,3,5,6-tetrafluorobenzyl (RS)-2-[2-(1,1-dimethylethyl]pyrimidin-5-yl]-3,3-dimethylbutanoate], the mortality at 500 ppm in test [1] was less than 50%; in [2], less than 50%; in test [3] it was less than 50%; in test [4], less than 50%; with Myzus persicae (aphids) it was less than 50%; in test [5], 50 to 79%. Moreover, the mortality at 500 ppm in test [6], in [7] and in test [8] was less than 50% throughout. For the same compound, the pest or weed control at 500 ppm in [9] was less than 50%.
As for `CC(C)SCc1c(F)c(F)c(COC(=O)C(c2cnc(C(C)(C)C)nc2)C(C)(C)C)c(F)c1F` (racemic) [Compound 174], the mortality at 500 ppm in [1] was 80 to 100%; in [2], less than 50%; in [3], less than 50%; in [4] it was less than 50%; in the test on Myzus persicae (aphids), 80 to 100%; in test [5] it was 50 to 79%. Moreover, the mortality at 500 ppm in [6], in [7] and in [8] was less than 50% each time. Also, the pest or weed control at 500 ppm in [9] is less than 50%.
For the compound `CC(C)(C)C(C(=O)OCc1ccc(F)c(Oc2ccccc2)c1)c1cnc(C2CC2)nc1` (racemic) [Compound 201, 4-fluoro-3-phenoxybenzyl (RS)-2-(2-cyclopropylpyrimidin-5-yl)-3,3-dimethylbutanoate], the mortality at 500 ppm fell in the range of 80 to 100% in test [1]; 80 to 100% in test [2]; 50 to 79% in [3]; 80 to 100% in test [4]; 80 to 100% in the test on Myzus persicae (aphids); 80 to 100% in [5]. The values for the mortality at 500 ppm in [6], in test [7] and in test [8] were 80 to 100%, 50 to 79% and 80 to 100%, respectively. For the same compound, the pest or weed control at 500 ppm in test [9] is 80 to 100%.
On to `CC(C)(C)C(=O)OCc1c(F)c(F)c(COC(=O)C(c2cnc(C(C)(C)C)nc2)C(C)(C)C)c(F)c1F` (racemic) [Compound 172, 4-[(2,2-dimethylpropionyl)oxymethyl]-2,3,5,6-tetrafluorobenzyl (RS)-2-[2-(1,1-dimethylethyl)pyrimidin-5-yl]-3,3-dimethylbutanoate], for which the mortality at 500 ppm in test [1] was 80 to 100%; in test [2] it was less than 50%; in test [3], less than 50%; in test [4], less than 50%; in the test with Myzus persicae (aphids), 50 to 79%; in [5] it was less than 50%. Moreover, the mortality at 500 ppm in test [6], in [7] and in test [8] was less than 50% in each case. Also, the pest or weed control at 500 ppm in test [9] is less than 50%.
